Tests used:
Type in all cases: cell-based
[1] = system: NMNAT1−/− RPE-1 cells; experiment: 12-day clonogenic survival assay, NMNAT1 knockout cells; details: for IC50: calculated IC50, NMNAT1−/− cells; for sensitivity of NMNAT1−/− cells relative to WT cells: drugs targeting the TS pathway; for Fold change (WT/NMNAT1−/−): ratio of IC50 WT to IC50 NMNAT1−/−
Procedure: (§1) a. Top, Immunoblot profiling of WT and NMNAT1^−/− RPE-1 cells for the indicated proteins. Bands corresponding to UNG1 (lower MW) and UNG2 (higher MW) are indicated. […] Cells were treated for 24 hours with the indicated doses of FdUrd, with and without 5 μM TAS-114. Bottom, Cell cycle distribution of WT (+/+) and NMNAT1^−/− (−/−) RPE-1 cells treated as in (top) (n=2). b. Quantification of gDNA-uracil and DNA breaks by modified comet assay with (right) and without (left) recombinant UNG (rUNG) respectively, in WT RPE-1 cells upon 24-hour FdUrd treatment with and without 5 μM TAS-114. Results are shown as tail moment. At least 80 comets per condition was measured using CometScore. […] The enzymes involved are indicated in bold and italic. Bottom, Immunoblot profiling of NMNAT1, ADP-ribosylation (PAR) and PARP1 (short and long exposures) in WT and NMNAT1^−/− cells complemented or not with wild type (WT) or catalytically-dead mutant (MUT) NMNAT1 (W169A). PARP1 was detected after membrane stripping of the anti-ADP ribosylation antibody. Cells were treated or not with PDD 00017273 (PARGi, 10 μM) for 2 hours and 10 mM MMS was added the last 10 minutes before cell lysis. Vinculin was used as loading control. d. Quantification of the 12-day clonogenic survival assay of the same cells as in (c, bottom) treated or not with the indicated doses of rucaparib (PARPi) for the duration of the experiment (n=3). e. Quantification of the 12-day clonogenic survival assay in WT (black) and NMNAT1^−/− (red) cells following exposure to the indicated doses of the indicated DNA-damaging drugs (n=3). f. Quantification of the 12-day clonogenic survival assay in WT, NMNAT1^−/−, and UNG^−/− cells following 24-hour exposure to the indicated doses of FdUrd with or without 5 μM TAS-114 (n=3). g. Quantification of the 12-day clonogenic survival assay in WT (black), NMNAT1^−/−, and UNG^−/− cells following 24-hour exposure to the indicated doses of TAS-114. (n=3). For WT cells, data are the same as in (FIG. 14c). h. Top, RT-qPCR quantification of DUT mRNA levels following 72-hour transfection of WT RPE-1 cells with DUT siRNA (siDUT) or relative control (siCTRL). Results are represented as fold change over siCTRL. (Bottom), Quantification of the 12-day clonogenic survival assay in WT (left), NMNAT1^−/− (middle), and UNG^−/− (right) cells following transfection with DUT siRNA and relative control (siCTRL). Data were expressed as a percentage (mean±s.e.m.) of colonies formed in each cell line relative to the appropriate siCTRL (n=3). i. Quantification of gDNA-uracil and DNA breaks as in (b) in WT and NMNAT1^−/− cells upon 0.08 μM FdUrd treatment with and without 5 μM TAS-114 for 24 hours.
(§2) To investigate the mechanism underlying the interplay between UNG and SMUG1, the inventors investigated the role of nuclear NAD^+ (nicotinamide adenine dinucleotide), a molecule with essential—yet poorly characterized—functions in DNA repair. In the nucleus of mammalian cells NAD^+ is synthesized by NMNAT1 (nicotinamide mononucleotide adenylyltransferase 1) and fuels the activity of PARP1 and sirtuins (FIG. 15c). The inventors generated NMNAT1 knockout (NMNAT1^−/−) RPE-1 cells and evaluated their sensitivity to a panel of DNA damaging agents (Table 1).

[2] = system: WT RPE-1 cells; experiment: 12-day clonogenic survival assay, WT cells; details: for IC50: calculated IC50, WT cells
Procedure: as §1, §2

[3] = system: BRCA2−/−-derived PARPi-resistant RPE-1 cells; experiment: Clonogenic formation, PARPi-resistant BRCA2 knockout cells; details: 0.5 mM inhibitor
Procedure: (§3) FIG. 7. a, Clonogenic formation of wild type (WT) and BRCA2−/− (clones C1 and C2) following exposure to the indicated doses of SIRT6 inhibitor OSS_128167. b, Clonogenic formation of wild type (WT), BRCA2−/− (clones C1 and C2) and BRCA2−/−-derived PARPi-resistant RPE-1 cells following exposure to 0.5 mM SIRT6 inhibitor OSS_128167. c, Clonogenic formation of parental and derived PARPi-resistant CAPAN-1 clones following exposure to the indicated doses of SIRT6 inhibitor OSS_128167. The normal breast epithelial cells MCF10A were included as an HR-proficient cell line.

[4] = system: BRCA2−/− RPE-1 cells (clones C1 and C2); experiment: Clonogenic formation / survival assay, BRCA2 knockout clones
Procedure: as §3
a. Quantification (top) and representative image (bottom right) of the 12-day clonogenic survival assay in WT and BRCA2^−/− cells following transduction with viral particles carrying either pLentiCRISPRv2 Neo_UNG gRNA (UNG gRNA) or relative control (CTRL gRNA) (n=3). Cells were seeded for clonogenic assay after selection with G418. Bottom left, Immunoblot analysis of UNG after G418 selection. b. […] Right, qPCR-based quantification of UNG activity in the same cell lines as in (left). c. […] Right, immunoblot analysis of UNG in the same samples as in (left). The arrows indicate UNG1 (lower) and UNG2 (upper). Vinculin was used as a loading control. d. […] Left, Quantification (left) and representative images (right) of the 12-day clonogenic survival assay in WT and NMNAT1^−/− cells complemented or not (EV, empty vector) with wild-type (WT) or catalytically-dead mutant (MUT:W169A) NMNAT1 cDNA following transfection with siBRCA2 (n=3). f. Quantification of the 12-day clonogenic survival assay in the HR-deficient cancer cell lines CAPAN1 (BRCA2 mutated) and OVCAR8 (BRCA1 promoter hypermethylation) following transfection with siUNG #7 (n=3). g. Quantification (left) and representative images (right) of the 12-day clonogenic survival assay in a panel of HR-proficient and HR-deficient cancer and normal (MCF10A) cell lines following transfection with siNMNAT1 (n=3).

[5] = system: PARPi-resistant CAPAN-1 clones; experiment: Clonogenic formation, PARPi-resistant CAPAN-1 clones; details: indicated doses
Procedure: as §3

[6] = system: MCF10A cells; experiment: Clonogenic formation, normal breast epithelial cells; details: same doses as for the CAPAN-1 clones
Procedure: as §3

[7] = system: cells lacking either NMNAT1 or UNG; experiment: γH2AX foci formation (DSB) by immunofluorescence; details: 24 h treatment, EdU-positive cells
Procedure: FIG. 11. Uracil excision is regulated by nuclear NAD^+. a. Quantification of post-replicative ssDNA gaps using DNA fiber assay in P53^−/− RPE-1 cells after 48-hours transfection with the indicated siRNAs. b. Schematic of 2′-deoxyuridine (dUTP)/thymidine (dTTP) biosynthetic pathway. The biological processes involved are in italic. c. Nuclear fractionation and immunoblot profiling of the indicated proteins following 24-hour drug exposure (0.1 μM FdUrd+5 μM TAS-114) of WT and UNG^−/− cells. For the washed-out samples (w.o.), cells were harvested 24 hours after drug removal. Western blot images are representative of three experiments. d. Left, quantification of DNA breaks (left, − rUNG) and gDNA-uracil (right, + rUNG) in wild type (WT) and NMNAT1^−/− cells upon 24-hour FdUrd treatment (20 μM) and the indicated hours after drug washout (w.o.). […] Right, Quantification of UNG protein level captured as in (left) normalized over captured PCNA and H3. f. Quantification of γH2AX foci formation before and after 24 h treatment of WT (grey) and NMNAT1^−/− (orange) cells with the indicated doses of TAS-114 (μM). g. Quantification (left) and representative images (right) of 12-day clonogenic survival assay following transfection with siRNAs and drug treatment of WT and NMNAT1^−/− cells as indicated. […]
a. […] Mass spectrometry-based quantification of the indicated metabolites (n=3). c. […]

With `O=c1[nH]c(=O)n([C@H]2C[C@H](O)[C@@H](CO)O2)cc1F` [FDURD, 5-fluorodeoxyuridine] the IC50 ([1]; Homo sapiens, RPE-1) was 17.7 µM, the “sensitivity of NMNAT1−/− cells relative to WT cells” value [1] was “more sensitive than WT cells” and the “Fold change (WT/NMNAT1−/−)” value [1] was 2.92. The IC50 ([2]; Homo sapiens, RPE-1) was 51.6 µM.

`OO` [H202] was tested, and the IC50 [1] was 22.1 µM, the “Fold change (WT/NMNAT1−/−)” value [1] was 1.03 and the IC50 [2] was 22.8 µM.

With `NC(=O)NO` [HU, hydroxyurea] the IC50 [1] was 637 µM, the “Fold change (WT/NMNAT1−/−)” value [1] was 2.46 and the IC50 [2] was 1570 µM.

`COS(C)(=O)=O` [MMS] was tested, and the IC50 [1] was 130 µM, the “Fold change (WT/NMNAT1−/−)” value [1] was 1.86 and the IC50 [2] was 242 µM.

`CN(Cc1cnc2nc(N)nc(N)c2n1)c1ccc(C(=O)N[C@@H](CCC(=O)O)C(=O)O)cc1` [MTX] was tested, and the IC50 [1] was 8.8 µM, the “sensitivity of NMNAT1−/− cells relative to WT cells” value [1] was “more sensitive than WT cells” and the “Fold change (WT/NMNAT1−/−)” value [1] was 12.75. It also gave an IC50 [2] of 112 µM.

With `O=C(Nc1ccc(O)c(C(=O)O)c1)c1cccc(NC(=O)c2ccco2)c1` [OSS_128167] the clonogenic formation [3] was “killed the PARPi-resistant BRCA2−/− RPE-1 cells to a similar extent than the parental drug-naïve cells”, the clonogenic ability ([4]; BRCA2−/− RPE-1 cells, indicated doses) was “impaired the clonogenic ability” and the clonogenic formation [5] was “resulted in cell death”. For the same molecule, the “survival of parental HRP cells” value ([2]; parental HRP RPE-1 cells, indicated doses) was “no effect on the survival” and the clonogenic ability [6] was “did not affect the clonogenic ability”.

For `C[C@@H](NS(=O)(=O)CCCOCn1ccc(=O)[nH]c1=O)c1cccc(OC2CCCC2)c1` [TAS-114], the “survival upon pharmacological inhibition of DUT” value ([1]; 24-hour exposure) was “decreased survival”, the “DSB formation (γH2AX foci)” value [7] was “triggered DNA double-strand break (DSB) formation exclusively during DNA replication” and the “sensitivity of BRCA2−/− cells upon UNG depletion” value ([4]; siUNG, 1 μM TAS-114, rescued by knockdown of SMUG1) was “sensitized”.

B1: UGI: peptide inhibitor of UNG, delivered by retroviral particles (protein, UniProt P14739 1-84, looked up)
Uracil-DNA glycosylase …: MTNLSDIIEKETGKQLVIQESILMLPEEVEEVIGNKPESDILVHTAYDESTDENVMLLTSDAPEYKPWALVIQDSNGENKIKML
With B1 the “clonogenic survival upon UNG inhibition” value ([4]; retroviral particles carrying UGI, versus WT cells) was “selectively kills”.

Source: patent publication US20260234634A1, “UNG/UDG INHIBITION IN BRCA-ASSOCIATED CANCER” (INSTITUT CURIE, priority 2023, published 2026)
